Experimental data reported in patent US20070014803A1, “METHODS AND COMPOSITIONS FOR DIAGNOSIS AND TREATMENT OF VIRAL AND BACTERIAL INFECTIONS” (Arbor Vita Corporation, priority 2005, published 2007).
pEC50: −log10 of the molar value. Where no end group is shown, it is not given here.

What was measured:
Assay in all cases: PRISM Matrix ELISA G assay, peptide titration
Type in all cases: binding
[1] = molecular target: T1, PDZ protein NSP (Homo sapiens, UniProt Q92743); conditions: for binding to the PDZ protein NSP, in words: summary of the titrations
T1 construct: made in house
Experimental: (§1) (1) A PDZ-domain polypeptide is bound to a surface, e.g. a protein binding surface. In a preferred embodiment, a GST/PDZ fusion protein containing one or more PDZ domains is bound to a polystyrene 96-well plate. […] In one embodiment, the GST/PDZ fusion protein is bound via an anti-GST antibody that is coated onto the 96-well plate. Adequate binding to the plate can be achieved when: • a. 100 μL per well of 5 μg/mL goat anti-GST polyclonal antibody (Pierce) in PBS is added to a polystyrene 96-well plate (e.g., Nunc Polysorb) at 4° C. for 12 hours. • b. The plate is blocked by addition of 200 μL per well of PBS/BSA for 2 hours at 4° C. • c. The plate is washed 3 times with PBS. • d. 50 μL per well of 5 μg/mL GST/PDZ fusion protein) or, as a negative control, GST polypeptide alone (i.e. not a fusion protein) in PBS/BSA is added to the plate for 2 hours at 4° C. • e. the plate is again washed 3 times with PBS.
(§2) (2) Biotinylated PL peptides are allowed to react with the surface by addition of 50 μL per well of 20 μM solution of the biotinylated peptide in PBS/BSA for 10 minutes at 4° C., followed by an additional 20 minute incubation at 25° C. The plate is washed 3 times with ice cold PBS.
(§3) (3) The binding of the biotinylated peptide to the GST/PDZ fusion protein surface can be detected using a variety of methods and detectors. In an exemplary procedure, 100 μL per well of 0.5 μg/mL streptavidin-horse radish peroxidase (HRP) conjugate dissolved in BSA/PBS is added and allowed to react for 20 minutes at 4° C. The plate is then washed 5 times with 50 mM Tris pH 8.0 containing 0.2% Tween 20, and developed by addition of 100 μL per well of HRP-substrate solution (TMB, Dako) for 20 minutes at room temperature (RT). The reaction of the HRP and its substrate is terminated by addition of 100 μL per well of 1 M sulfuric acid, and the optical density (O.D.) of each well of the plate is read at […].
(§4) (4) Specific binding of a PL peptide and a PDZ domain polypeptide is determined by comparing the signal from the well(s) in which the PL peptide and PDZ domain polypeptide are combined, with the background signal(s). The background signal is the signal found in the negative control(s). Typically a specific or selective reaction is at least twice background signal, more typically more than 5 times background, and most typically 10 or more times the background signal. In addition, a statistically significant reaction involves multiple measurements of the reaction with the signal and the background differing by at least two standard errors, more typically four standard errors, and most typically six or more standard errors. Correspondingly, a statistical test (e.g. a T-test) comparing repeated measurements of the signal with -repeated measurements of the background will result in a p-value <0.05, more typically a p-value <0.01, and most typically a p-value <0.001 or less. As noted, in an embodiment of the “G” assay, the signal from binding of a given PL peptide to immobilized (surface bound) GST polypeptide alone is one suitable negative control (sometimes referred to as “B 1”). Because all measurement are done in multiples (i.e. at least duplicate) the arithmetic mean (or, equivalently, average) of several measurements is used in determining the binding, and the standard error of the mean is used in determining the probable error in the measurement of the binding. The standard error of the mean of N measurements equals the square root of the following: the sum of the squares of the difference between each measurement and the mean, divided by the product of (N) and (N−1). Thus, in one embodiment, specific binding of the PDZ protein to the platebound peptide is determined by comparing the mean signal (“mean S”) and standard error of the signal (“SE”) for a particular PL-PDZ combination with the mean B I.
(§5) Two different types of ELISA assays were used to test the HIV Peptides 1904 and 1905. […]

[2] = molecular target: T2, PDZ protein ZO-1 d2 (domain 2) (Homo sapiens, UniProt Q07157, DEL264-264); conditions: for pEC50: read-out: EC50 of binding to the PDZ protein ZO-1 d2, regular G assay titration, GST/PDZ fusion (FIG. 1B, FIG. 4B); for binding to the PDZ protein ZO-1 d2, in words: summary of the titrations
T2 construct: made in house
T2 sequence (Q07157 with tags, fused parts or gaps DEL264-264): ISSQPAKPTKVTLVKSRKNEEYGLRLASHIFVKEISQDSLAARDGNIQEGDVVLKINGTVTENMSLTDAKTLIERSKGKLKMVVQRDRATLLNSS
Experimental: as §1, §2, §3, §4, §5

[3] = molecular target: T3, PDZ protein Rim2 (Homo sapiens, UniProt Q9UQ26); conditions: for pEC50: read-out: EC50 of binding to the PDZ protein Rim2, regular G assay titration, GST/PDZ fusion (FIG. 1C, FIG. 4C); for binding to the PDZ protein Rim2, in words: summary of the titrations
T3 construct: made in house
T3 sequence (Q9UQ26 632-757): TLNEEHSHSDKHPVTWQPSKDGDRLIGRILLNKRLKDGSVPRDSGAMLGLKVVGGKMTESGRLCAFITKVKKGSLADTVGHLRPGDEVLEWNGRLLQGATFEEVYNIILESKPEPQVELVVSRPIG
Experimental: as §1, §2, §3, §4, §5

T1 sequence (Q92743 359-473): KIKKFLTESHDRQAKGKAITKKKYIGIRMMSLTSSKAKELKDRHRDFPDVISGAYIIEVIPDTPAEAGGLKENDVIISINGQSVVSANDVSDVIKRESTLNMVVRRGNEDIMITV

YGRKKRRQRRRRQGLERILL-OH [Peptide 1904]
binding to the PDZ protein NSP, in words [1]: strong binding | pEC50 [2]: 6.77 | binding to the PDZ protein ZO-1 d2, in words [2]: strong binding | pEC50 [3]: 6.39 | binding to the PDZ protein Rim2, in words [3]: strong binding

YGRKKRRQRRRRQGFERALL-OH [Peptide 1905]
pEC50 ([1]; read-out: EC50 of binding to the PDZ protein NSP, regular G assay titration, GST/PDZ fusion (FIG. 1D, FIG. 4D)): 6.78 | binding to the PDZ protein NSP, in words [1]: strong binding | pEC50 [2]: 6.74 | binding to the PDZ protein ZO-1 d2, in words [2]: strong binding | pEC50 [3]: 6.74 | binding to the PDZ protein Rim2, in words [3]: strong binding
